In publication PMC12664493, “Asparagine endopeptidase (AEP) inhibitor formulation via zein-based nanoparticle improves the therapeutic efficacy toward Alzheimer's disease” (Neurotherapeutics, 2025):
“And” between values parts separate entries of the source, which are not always exact repeats. Identical values can stand only once. Like-named read-outs stand apart in the source and are kept apart here.

Legend:
[1] = In vivo pharmacokinetics in CD-1 (ICR) mice, plasma and brain, LC-MS/MS; conditions: mouse
Text: (§1) Blood and brain tissues were collected at 0, 0.08, 0.25, 0.5, 1, 2, 4, and 8 h post-administration. For acute pharmacodynamic (PD) assessments, male and female 3xTg mice received oral doses of NP-11a-isopropyl at 7.5 mg/kg or 15 mg/kg, and blood and brain samples were collected 2 h after treatment.

BCRP = target: T1, BCRP (Homo sapiens, UniProt Q9UNQ0); experiment: Caco-2-BCRP assay with and without Ko143; assay type: in vitro ADME; conditions: for Papp A→B / Papp B→A / recovery: human
T1 construct: endogenous in cells; host or cells: Caco-2
T1 sequence (Q9UNQ0 1-655): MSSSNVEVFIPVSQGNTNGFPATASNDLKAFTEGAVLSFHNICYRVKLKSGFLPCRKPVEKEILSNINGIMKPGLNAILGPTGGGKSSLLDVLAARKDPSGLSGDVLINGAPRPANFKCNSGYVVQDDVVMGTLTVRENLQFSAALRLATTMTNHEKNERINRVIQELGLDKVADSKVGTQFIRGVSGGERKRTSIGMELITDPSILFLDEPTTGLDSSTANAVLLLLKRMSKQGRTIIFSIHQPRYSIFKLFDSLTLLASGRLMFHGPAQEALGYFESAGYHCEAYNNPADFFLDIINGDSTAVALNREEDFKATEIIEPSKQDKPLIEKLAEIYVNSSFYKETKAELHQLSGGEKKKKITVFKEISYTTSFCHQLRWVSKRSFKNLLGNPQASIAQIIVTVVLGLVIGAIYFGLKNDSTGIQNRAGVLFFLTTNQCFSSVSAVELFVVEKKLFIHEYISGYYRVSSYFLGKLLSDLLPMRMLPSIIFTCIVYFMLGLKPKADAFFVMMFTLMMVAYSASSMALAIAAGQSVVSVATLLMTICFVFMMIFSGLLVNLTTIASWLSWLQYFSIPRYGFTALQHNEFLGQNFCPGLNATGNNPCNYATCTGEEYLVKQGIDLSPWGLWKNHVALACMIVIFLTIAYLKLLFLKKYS

Aβ42 = experiment: Aβ ELISA of brain tissue of 3xTg mice; assay type: in vivo, mouse; conditions: 7.5 mg/kg P.O. daily, one month
hERG K+ channel = hERG K+ channel (Homo sapiens, UniProt Q12809); experiment: hERG inhibition assay
P-glycoprotein (MDR1) = target: T2, P-glycoprotein (MDR1) (Homo sapiens, UniProt P08183); experiment: MDR1-MDCKII permeability assay (P-glycoprotein efflux); assay type: in vitro ADME; conditions: dog, MDCK-MDR1
T2 construct: expressed in transfected cells; host or cells: MDCKII

AEP = target: T3, AEP (Mus musculus, UniProt O89017); experiment: Chronic one-month oral treatment of 3xTg mice: AEP activation and substrate cleavage; assay type: in vivo; conditions: 7.5 mg/kg P.O. daily
T3 construct: from tissue; host or cells: brain / hippocampus of 3xTg mice
T3 sequence (O89017 18-435): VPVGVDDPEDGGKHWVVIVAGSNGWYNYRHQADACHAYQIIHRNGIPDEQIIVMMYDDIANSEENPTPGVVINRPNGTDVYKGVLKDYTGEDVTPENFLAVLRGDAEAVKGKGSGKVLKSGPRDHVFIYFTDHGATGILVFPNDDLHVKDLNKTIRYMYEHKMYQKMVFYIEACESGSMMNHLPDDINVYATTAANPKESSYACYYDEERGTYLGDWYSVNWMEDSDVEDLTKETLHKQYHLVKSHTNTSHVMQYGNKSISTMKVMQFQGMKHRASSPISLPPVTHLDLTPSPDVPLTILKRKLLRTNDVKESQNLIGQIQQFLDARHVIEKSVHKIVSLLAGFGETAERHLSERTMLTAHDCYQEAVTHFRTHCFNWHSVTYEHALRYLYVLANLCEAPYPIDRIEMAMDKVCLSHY

[2] = Stability in mouse plasma; assay type: in vitro ADME; conditions: read-out: Stability-Plasma T1/2
Aβ plaques = experiment: Aβ PET (18F-AV45) in 3xTg mice after chronic treatment; assay type: in vivo, mouse; conditions: 7.5 mg/kg P.O. daily, one month
Text: as §1
Mice were maintained under isoflurane inhalation anesthesia during all procedures to ensure stable physiological conditions for radiochemical administration, imaging, and data processing. PET imaging was conducted using a high-resolution small-animal scanner (microPET; spatial resolution: 1.0 mm). Following intravenous administration of 10–15 MBq of ^18F-florbetapir (AV45) in 100 μL saline via the tail vein, 20-min volumetric brain emission scans were acquired. Image reconstruction was performed using ordered-subset expectation maximization (OSEM) to optimize spatial resolution and signal-to-noise ratios. For quantitative analysis, standardized uptake value ratios (SUVRs) were calculated by normalizing 18F-AV45 uptake in target regions to the cerebellar reference tissue. A predefined volumetric region of interest (VOI) template was applied to ensure consistent anatomical localization across subjects. SUVR data were statistically analyzed using Amide 1.0.4–1 (San Diego, CA, USA), with results reported for cortical and subcortical regions implicated in amyloid pathology.

[3] = Plasma protein binding, human; assay type: in vitro ADME
[4] = Stability in mouse hepatocytes; assay type: in vitro ADME
[5] = Stability in human plasma; assay type: in vitro ADME; conditions: read-out: Stability-Plasma T1/2
[6] = Plasma and brain concentrations after acute oral treatment of 3xTg mice; assay type: in vivo; conditions: both sexes, mouse
Text: Blood and brain tissues were collected at 0, 0.08, 0.25, 0.5, 1, 2, 4, and 8 h post-administration.

[7] = male, CD-1 (ICR), plasma, iv, I.V. 2 mg/kg
[8] = male, CD-1 (ICR), plasma, po, P.O. 5 mg/kg

T2 sequence (P08183 whole entry): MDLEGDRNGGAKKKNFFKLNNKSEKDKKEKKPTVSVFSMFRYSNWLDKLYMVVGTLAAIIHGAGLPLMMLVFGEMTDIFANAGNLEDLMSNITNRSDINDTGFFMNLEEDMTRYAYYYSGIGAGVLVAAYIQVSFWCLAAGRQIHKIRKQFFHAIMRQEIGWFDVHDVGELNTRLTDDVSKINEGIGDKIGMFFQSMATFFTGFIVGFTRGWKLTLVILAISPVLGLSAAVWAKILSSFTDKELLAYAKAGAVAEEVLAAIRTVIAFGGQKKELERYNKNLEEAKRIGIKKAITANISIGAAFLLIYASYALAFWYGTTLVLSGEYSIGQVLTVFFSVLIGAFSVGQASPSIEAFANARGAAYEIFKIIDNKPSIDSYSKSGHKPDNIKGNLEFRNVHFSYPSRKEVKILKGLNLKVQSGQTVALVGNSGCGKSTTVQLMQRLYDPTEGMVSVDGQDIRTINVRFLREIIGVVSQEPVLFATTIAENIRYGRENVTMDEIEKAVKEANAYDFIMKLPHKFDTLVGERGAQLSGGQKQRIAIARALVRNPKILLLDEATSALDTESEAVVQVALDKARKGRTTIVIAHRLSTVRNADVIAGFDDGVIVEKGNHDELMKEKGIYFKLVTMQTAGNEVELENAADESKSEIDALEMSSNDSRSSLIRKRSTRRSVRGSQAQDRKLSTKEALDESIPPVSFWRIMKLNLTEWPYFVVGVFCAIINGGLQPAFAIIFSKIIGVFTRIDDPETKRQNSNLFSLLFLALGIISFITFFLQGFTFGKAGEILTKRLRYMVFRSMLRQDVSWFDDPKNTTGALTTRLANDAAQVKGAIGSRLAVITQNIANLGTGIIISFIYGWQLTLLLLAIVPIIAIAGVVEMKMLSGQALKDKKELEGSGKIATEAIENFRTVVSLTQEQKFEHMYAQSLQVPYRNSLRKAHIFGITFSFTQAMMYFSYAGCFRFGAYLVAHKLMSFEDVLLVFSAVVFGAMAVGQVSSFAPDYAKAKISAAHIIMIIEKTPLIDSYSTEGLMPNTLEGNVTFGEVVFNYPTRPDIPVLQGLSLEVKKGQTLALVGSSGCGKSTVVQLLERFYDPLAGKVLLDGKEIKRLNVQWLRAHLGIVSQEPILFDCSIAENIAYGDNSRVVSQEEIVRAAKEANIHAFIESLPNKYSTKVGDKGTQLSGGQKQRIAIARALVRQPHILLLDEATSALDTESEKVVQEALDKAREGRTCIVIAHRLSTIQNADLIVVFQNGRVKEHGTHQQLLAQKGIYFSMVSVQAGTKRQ
Chain of hERG K+ channel (Q12809 whole entry): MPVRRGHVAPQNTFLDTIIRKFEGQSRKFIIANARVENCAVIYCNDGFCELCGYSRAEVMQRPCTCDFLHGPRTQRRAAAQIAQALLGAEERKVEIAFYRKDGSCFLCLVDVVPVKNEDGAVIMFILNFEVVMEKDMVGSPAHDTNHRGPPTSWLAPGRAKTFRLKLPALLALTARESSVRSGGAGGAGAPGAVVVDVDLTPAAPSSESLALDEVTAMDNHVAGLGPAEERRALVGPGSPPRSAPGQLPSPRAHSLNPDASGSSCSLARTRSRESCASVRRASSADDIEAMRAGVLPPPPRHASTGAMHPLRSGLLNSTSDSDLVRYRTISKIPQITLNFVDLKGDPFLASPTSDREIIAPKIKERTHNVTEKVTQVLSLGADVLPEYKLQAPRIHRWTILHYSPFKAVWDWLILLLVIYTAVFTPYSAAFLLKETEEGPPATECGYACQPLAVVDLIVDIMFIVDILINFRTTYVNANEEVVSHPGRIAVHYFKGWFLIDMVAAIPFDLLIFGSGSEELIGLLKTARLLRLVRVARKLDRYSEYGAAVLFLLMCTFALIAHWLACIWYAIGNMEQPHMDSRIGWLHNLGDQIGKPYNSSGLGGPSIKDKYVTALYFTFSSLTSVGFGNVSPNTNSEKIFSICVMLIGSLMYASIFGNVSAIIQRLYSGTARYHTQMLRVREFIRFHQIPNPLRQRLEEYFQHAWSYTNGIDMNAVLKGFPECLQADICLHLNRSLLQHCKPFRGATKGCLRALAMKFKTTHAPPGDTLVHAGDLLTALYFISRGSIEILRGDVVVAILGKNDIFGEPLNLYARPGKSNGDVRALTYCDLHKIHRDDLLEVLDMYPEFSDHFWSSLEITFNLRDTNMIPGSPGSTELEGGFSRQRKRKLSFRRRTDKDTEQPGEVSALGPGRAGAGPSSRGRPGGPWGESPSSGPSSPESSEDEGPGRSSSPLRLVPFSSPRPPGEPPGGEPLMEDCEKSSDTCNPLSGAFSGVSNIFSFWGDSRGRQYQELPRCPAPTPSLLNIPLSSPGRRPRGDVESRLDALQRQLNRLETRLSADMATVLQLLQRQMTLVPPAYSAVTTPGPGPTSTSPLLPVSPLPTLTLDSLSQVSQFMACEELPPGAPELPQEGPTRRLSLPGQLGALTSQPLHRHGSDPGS

CC(C)Nc1nnc(Nc2cc(CO)c(N3CCOCC3)c3nonc23)s1 [11a-isopropyl]
MRT last ([1]; male, CD-1 (ICR), brain, iv, I.V. 2 mg/kg, read-out: Brain MRT (0-t)): 143 min
Tmax ([1]; male, CD-1 (ICR), brain, iv, I.V. 2 mg/kg, read-out: Brain Tmax): 4.8 min
MRT last ([1]; male, CD-1 (ICR), brain, po, P.O. 5 mg/kg, read-out: Brain MRT (0-t)): 130 min
Tmax ([1]; male, CD-1 (ICR), brain, po, P.O. 5 mg/kg, read-out: Brain Tmax): 11.6 min
half-life ([1]; male, CD-1 (ICR), brain, iv, 2 mg/kg, I.V. 2 mg/kg, read-out: Brain t1/2 (converted)): ~120 min
half-life ([1]; male, CD-1 (ICR), brain, po, 5 mg/kg, P.O. 5 mg/kg, read-out: Brain t1/2 (converted)): 144 min
clearance ([1]; male, CD-1 (ICR), plasma, iv, 2 mg/kg, I.V. 2 mg/kg, read-out: Plasma CLz (converted)): 13.8 mL/min/kg
half-life ([1]; male, CD-1 (ICR), plasma, iv, 2 mg/kg, I.V. 2 mg/kg, read-out: Plasma t1/2 (converted)): 53.4 min
bioavailability ([1]; male, CD-1 (ICR), plasma, oral, 5 mg/kg, P.O. 5 mg/kg vs I.V. 2 mg/kg, read-out: F* (%) oral bioavailability): ~67.2%
half-life ([1]; male, CD-1 (ICR), plasma, po, 5 mg/kg, P.O. 5 mg/kg, read-out: Plasma t1/2 (converted)): ~43.8 min
AUC(0-t) [1, 7]: 2410 ng·h/mL
Cmax [1, 7]: 5160 ng/mL
MRT last ([1]; male, CD-1 (ICR), plasma, iv, I.V. 2 mg/kg, read-out: Plasma MRT (0-t)): 33.4 min
Tmax ([1]; male, CD-1 (ICR), plasma, iv, I.V. 2 mg/kg, read-out: Plasma Tmax): 4.8 min
AUC(0-t) [1, 8]: 4050 ng·h/mL
Cmax [1, 8]: 4770 ng/mL
MRT last ([1]; male, CD-1 (ICR), plasma, po, P.O. 5 mg/kg, read-out: Plasma MRT (0-t)): 50.9 min
Tmax ([1]; male, CD-1 (ICR), plasma, po, P.O. 5 mg/kg, read-out: Plasma Tmax): 8.22 min
Brain AUC (0-t) ([1]; I.V. 2 mg/kg, 2 mg/kg): approximately 921.71 ng/mL·h
Brain Cmax ([1]; I.V. 2 mg/kg, 2 mg/kg): 306.77 ng/mL
Brain AUC (0-t) ([1]; P.O. 5 mg/kg, 5 mg/kg): ~385.36 ng·h/mL and 385.358 ng·h/mL
Brain Cmax ([1]; P.O. 5 mg/kg, 5 mg/kg): 321.25 ng/mL and 321.248 ng/mL
BCRP substrate classification (BCRP): not a significant substrate of BCRP
Papp A→B (BCRP; Caco-2, with Ko143 2 μM): 15.7 ×10⁻⁶ cm/s
Papp B→A (BCRP; Caco-2, with Ko143 2 μM): 35.7 ×10⁻⁶ cm/s
recovery (BCRP; Caco-2, with Ko143 2 μM, Ko143 2 μM, read-out: Recovery (%) A→B): 107%
recovery (BCRP; Caco-2, with Ko143 2 μM, Ko143 2 μM, read-out: Recovery (%) B→A): 98.5%
Papp A→B (BCRP; Caco-2, Ko143 0 μM): 12.1 ×10⁻⁶ cm/s
Papp B→A (BCRP; Caco-2, Ko143 0 μM): 35.7 ×10⁻⁶ cm/s
recovery (BCRP; Caco-2, Ko143 0 μM, read-out: Recovery (%) A→B): 91.8%
recovery (BCRP; Caco-2, Ko143 0 μM, read-out: Recovery (%) B→A): 104%
Aβ42 level in brain, ELISA (Aβ42): significantly reduced
IC50 (hERG K+ channel): > 10 µM
Papp A→B (P-glycoprotein (MDR1); a-b, first value in brackets): 0.568 ×10⁻⁶ cm/s
Papp B→A (P-glycoprotein (MDR1); b-a, second value in brackets): 61.9 ×10⁻⁶ cm/s
AEP activation, APP N585 and Tau N368 fragmentation, hippocampus immunoblotting (AEP): gradually reduced
half-life [2]: > 480 min
Aβ PET (18F-AV45) SUVR (Aβ plaques): significantly decreasing the PET signals
Plasma Protein F u, plasma(%) [3]: 13.8%
hepatocyte CLint [4]: 9 µL/min/1e6 cells
half-life ([4]; read-out: Stability-Hepatocytes T1/2): 153 min
half-life [5]: > 480 min
concentration at 2 h ([6]; brain, 7.5 mg/kg, 11a-isopropyl level in the brain, P.O. 7.5 mg/kg): 14.4 ng/mL
concentration at 2 h ([6]; brain, 7.5 mg/kg, P.O. 7.5 mg/kg, read-out: Concentration in brain, Brain Mean): 14.4 ng/g
concentration at 2 h ([6]; brain, 7.5 mg/kg, P.O. 7.5 mg/kg, read-out: Concentration in brain, Brain Sample (single animal)): 14.4 ng/g
concentration at 2 h ([6]; brain, 15 mg/kg, P.O. 15 mg/kg, read-out: Concentration in brain, Brain Sample (single animal)): 39.3 ng/g
concentration at 2 h ([6]; plasma, 7.5 mg/kg, P.O. 7.5 mg/kg, read-out: Concentration in plasma, Serum Mean): 74.9 ng/mL
